Data taken from patent US8519163B2, “Anti-tumor activity of AECHL-1, novel triterpenoid isolated from Ailanthus excelsa in vitro and in vivo” (National Centre for Cell Science, priority 2008, dated 2013).
Where “and” joins values, the source holds several entries; their conditions need not be identical. Equal entries are not always repeated.

Experiments:
[1] = test system: HEK 293 (Human embryonic kidney cell line); experiment: Cell viability assay (MTT); format: cell-based; details: HEK 293, compared with tumor cell lines
Description: The cytotoxic effect of AECHL-1 on the HEK 293, B16F10, PC3, MCF 7 and MDA-MB-231 cells was measured by MTT assay as described in previous studies. The cells were dispensed in 96-well, flat bottom microtiter plates (Becton Dickinson Labware) at a density of 5×10^3 cells each well. […] MTT [3-(4,5-dimethylthiazol-2yl)-2,5-diphenyl tetrazolium bromide] solution (5 mg/ml in PBS) was added at the end of experiment to each well to a final concentration of 0.5 mg/ml, and the cultures were incubated for further 4 h. The resulting formazan crystals were dissolved in 100 μl dimethylsulfoxide (DMSO) and absorbance was measured in a microplate reader at 570 nm (Molecular Devices, Spectra MAX 250). The cytotoxic effect was expressed as a relative percentage of inhibition calculated as follows: Relative inhibition(%)=[(A570 control−A570 AECHL-1)A570 control]×100 Cell Proliferation Assay

CDK4 = experiment: Western blot of tumor homogenates of C57B1/6 mice; format: in vivo, mouse; details: tumor of C57 mice
Description: (§1) Prior to immunoblot analysis, tumor segments stored at −80° C. were thawed, washed, minced and homogenized in lysis buffer (120 mM NaCl, 1.0% Triton X 100, 20 mM Tris-HCl, pH 7.5, 10% glycerol, 2 mM EDTA, Protease inhibitor cocktail, Roche) using a Polytron homogenization device. Lysates were incubated at 4° C. for 30 min and centrifuged at 14000 r.p.m. in an Eppendorf micro centrifuge for 15 min. Proteins were isolated in solublised form. Protein concentrations were measured by Bradford assay (Bio-Rad protein assay kit) and stored at −80° C. For immunobloting, 60 μg of total protein from the tumor lysates were used Proteins were resolved in a 10% SDS-polyacrylamide gel, transferred to the immobilon-P […] membrane and blocked with 5% (wt/v) non fat dry milk powder (Sigma) in TBST buffer (10 mM Tris pH 7.6, 150 mM NaCl and 0.1% Tween-20) for three hours at room temperature and then incubated with primary antibodies p53, pp53, p21, Cyclin D1, CDK4 and c-Myc in TBST for 3 h and with actin for 1 hour at room temperature. The membrane was incubated further with the secondary antibody HRP-conjugated (BD Bioscience) at 1:10000 dilution for 1 h at room temperature. Following each antibody incubation, the membrane was washed thoroughly with TBST buffer 3 times. The protein bands were visualized using the enhanced chemiluminescence substrate reaction (Pierce) according to the manufacturer's instructions using X-OMAT AR5 film (Kodak)

c-Myc = experiment: Western blot of tumor homogenates of C57B1/6 mice; format: in vivo, mouse; details: tumor of C57 mice
Description: as §1

p53 = experiment: Western blot of tumor homogenates of C57B1/6 mice; format: in vivo, mouse; details: tumor of C57 mice, compared with control
Description: as §1

pp53 = experiment: Western blot of tumor homogenates of C57B1/6 mice; format: in vivo, mouse; details: tumor of C57 mice
Description: as §1

p21 = experiment: Western blot of tumor homogenates of C57B1/6 mice; format: in vivo, mouse; details: tumor of C57 mice
Description: as §1

Cyclin D1 = experiment: Western blot of tumor homogenates of C57B1/6 mice; format: in vivo, mouse; details: tumor of C57 mice
Description: as §1

[2] = test system: cellular microtubule network; experiment: Immunocytochemistry, microtubule network in MCF-7 cells; format: cell-based, human; details: paclitaxel 1-20 μM, AECHL-1 2-40 μM, 24 h, confocal microscopy
Description: Immunocytochemistry was performed as described previously. […] Cells were incubated with primary anti-p53 antibodies (1:100; Abcam) and anti-α-tubulin antibodies (1:10000; Sigma chemical Co.) for 1 hour at room temperature. After washing with PBS, cells were incubated with CY2-conjugated secondary antibodies (1:200; Chemicon, Germany) and Alexa-conjugated secondary antibodies (1:10000; Sigma, St. Louis, Mo.) for 45 minutes and nuclear staining was done with DAPI. Images were captured under confocal microscope.
The tumor suppressor p53 plays a critical role in preventing human cancer formation. It translocates into the nucleus and works as a transcription factor by upregulating cell cycle regulatory proteins and induces cell cycle arrest and/or programmed cell death (apoptosis) (11). […] After 24 h of incubation, the p53 translocation in the nucleus (green fluorescence) and microtubule network (red fluorescence) was visualized by confocal microscopy.

MDA-MB-231 cells = experiment: Cell cycle analysis by flow cytometry; format: cell-based, human; details: for Phase of cell cycle (% of cells) G1 / Phase of cell cycle (% of cells) G2/M / Phase of cell cycle (% of cells) S / Phase of cell cycle (% of cells) Sub G0: 24 h
Description: (§2) The cell cycle analysis of MCF-7, B16F10 MDA-MB-231 and PC3 cells was done by flow cytometry. […] Cells were harvested with trypsin (0.05%), 0.02% EDTA, 0.05% glucose and a single-cell suspension was prepared. Cells were washed and were pelleted by centrifugation (1000×g for 2 min) and fixed in 70% ethanol while vortexing and stored at 4° C. for 1 hour. Fixed cells were pelleted by centrifugation, to remove ethanol and washed with PBS. Cells were re-suspended in PBS containing 50 μg/ml propidium iodide, 0.1 g/L RNase and 1% BSA, incubated for 30 min at 37° C. in the dark, and analyzed with flow cytometry (FACS Vantage-BD Sciences, USA) equipped with an argon laser at 488 nm. The data was analyzed using Cell Quest software for determining the percent population in different phases of cell cycle.

MCF-7 cells = experiment: Cell cycle analysis by flow cytometry; format: cell-based, human; details: for Phase of cell cycle (% of cells) G1 / Phase of cell cycle (% of cells) G2/M / Phase of cell cycle (% of cells) S / Phase of cell cycle (% of cells) Sub G0: 24 h
Description: as §2

C=C1C(OCC)C2(O)OCC34C(=C(C)c5c(C)cc(O)c(OCC)c5C23)OC(=O)C(OC(=O)C(C)(O)CC)C14 (centres unmarked) [AECHL-1]
cytotoxicity in normal cells [1]: less cytotoxicity | expression of CDK4 (CDK4): reduced the expression | expression of c-Myc (c-Myc): downragulation | p53 protein expression (p53; 50 μg): increasing expression | p53 protein expression (p53; 100 μg): increasing expression | phosphorylation of p53 (pp53) (pp53; 50 μg): increasing | phosphorylation of p53 (pp53) (pp53; 100 μg): decreased | expression of p21 (p21; 50 μg): decrease | expression of p21 (p21; 100 μg): increased | expression of cyclin D1 (Cyclin D1): reduced the expression | effect on microtubule network [2]: thickening and increased density of microtubules | Phase of cell cycle (% of cells) G1 (MDA-MB-231 cells; MDA-231, 10 μM): 43.03% | Phase of cell cycle (% of cells) G2/M (MDA-MB-231 cells; MDA-231, 10 μM): 32.21% | Phase of cell cycle (% of cells) S (MDA-MB-231 cells; MDA-231, 10 μM): 24.06% | Phase of cell cycle (% of cells) Sub G0 (MDA-MB-231 cells; MDA-231, 10 μM): 1.03% | Phase of cell cycle (% of cells) G1 (MDA-MB-231 cells; MDA-231, 20 μM): 33.18% | Phase of cell cycle (% of cells) G2/M (MDA-MB-231 cells; MDA-231, 20 μM): 38.01% | Phase of cell cycle (% of cells) S (MDA-MB-231 cells; MDA-231, 20 μM): 28.63% | Phase of cell cycle (% of cells) Sub G0 (MDA-MB-231 cells; MDA-231, 20 μM): 0.95% | Phase of cell cycle (% of cells) G1 (MDA-MB-231 cells; MDA-231, 40 μM): 26.66% | Phase of cell cycle (% of cells) G2/M (MDA-MB-231 cells; MDA-231, 40 μM): 45.14% and 45.15% | Phase of cell cycle (% of cells) S (MDA-MB-231 cells; MDA-231, 40 μM): 28.12% | Phase of cell cycle (% of cells) Sub G0 (MDA-MB-231 cells; MDA-231, 40 μM): 0.54% | Phase of cell cycle (% of cells) G1 (MDA-MB-231 cells; MDA-231, 100 μM): 22.82% | Phase of cell cycle (% of cells) G2/M (MDA-MB-231 cells; MDA-231, 100 μM): 46.17% | Phase of cell cycle (% of cells) S (MDA-MB-231 cells; MDA-231, 100 μM): 30.99% | Phase of cell cycle (% of cells) Sub G0 (MDA-MB-231 cells; MDA-231, 100 μM): 0.58% | phase of cell growth arrest (MDA-MB-231 cells; MDA-MB 231 cells): S-G2/M phase | Phase of cell cycle (% of cells) G1 (MCF-7 cells; MCF-7, 4 μM): 35.04% | Phase of cell cycle (% of cells) G2/M (MCF-7 cells; MCF-7, 4 μM): 36.65% | Phase of cell cycle (% of cells) S (MCF-7 cells; MCF-7, 4 μM): 27.20% | Phase of cell cycle (% of cells) Sub G0 (MCF-7 cells; MCF-7, 4 μM): 1.61% | Phase of cell cycle (% of cells) G1 (MCF-7 cells; MCF-7, 10 μM): 27.85% | Phase of cell cycle (% of cells) G2/M (MCF-7 cells; MCF-7, 10 μM): 36.78% | Phase of cell cycle (% of cells) S (MCF-7 cells; MCF-7, 10 μM): 34.19% | Phase of cell cycle (% of cells) Sub G0 (MCF-7 cells; MCF-7, 10 μM): 1.99% | Phase of cell cycle (% of cells) G1 (MCF-7 cells; MCF-7, 20 μM): 29.68% | Phase of cell cycle (% of cells) G2/M (MCF-7 cells; MCF-7, 20 μM): 31.98% | Phase of cell cycle (% of cells) S (MCF-7 cells; MCF-7, 20 μM): 37.44% | Phase of cell cycle (% of cells) Sub G0 (MCF-7 cells; MCF-7, 20 μM): 1.81% | Phase of cell cycle (% of cells) G1 (MCF-7 cells; MCF-7, 40 μM): 36.26% | Phase of cell cycle (% of cells) G2/M (MCF-7 cells; MCF-7, 40 μM): 29.42% | Phase of cell cycle (% of cells) S (MCF-7 cells; MCF-7, 40 μM): 32.50% | Phase of cell cycle (% of cells) Sub G0 (MCF-7 cells; MCF-7, 40 μM): 2.55% | % of cells in G0/G1 phase (MCF-7 cells; MCF-7, 100 μM): 36.26% | cell count in S-G2/M phase (MCF-7 cells; MCF-7, 100 μM, control 45.13): 69.4% | phase of cell growth arrest (MCF-7 cells; MCF-7 cells): S-G2/M phase
